Measurements reported in PubChem BioAssay AID2042 (NMMLSC, 2009).
Activity calls are given as the source filed them.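 Rule for the calls: active = EC50 at most 30 µM plus a dose-response curve spanning at least 25% response; inactive = the rest.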

Target: GTPase HRas (Homo sapiens) (UniProt P01112)
Experiment: activated Ras GTP binding inhibitors, SAR follow-up, biochemical, oxadiazole analogs, activated mutant, multiplex flow cytometry (AID 2042)
Conditions: GST-Ras beads, Bodipy-FL-GTP binding; for Ki: measured here: Ki calculated from EC50

Sequence of GTPase HRas (Homo sapiens) (P01112 whole entry, looked up): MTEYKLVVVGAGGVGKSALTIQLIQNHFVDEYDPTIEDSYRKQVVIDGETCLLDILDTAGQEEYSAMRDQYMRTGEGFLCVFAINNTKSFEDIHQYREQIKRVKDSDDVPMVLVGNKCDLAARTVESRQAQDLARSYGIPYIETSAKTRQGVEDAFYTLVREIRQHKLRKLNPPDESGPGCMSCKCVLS

EC50 | Ki | SMILES
> 30 µM (inactive) |  | COc1ccc(-c2noc(CCC(=O)N3CCN(c4cccc(C)c4C)CC3)n2)cc1
> 30 µM (inactive) |  | COc1ccc(-c2noc(CCC(=O)N3CCN(c4cccc(Cl)c4)CC3)n2)cc1
> 30 µM (inactive) |  | COc1ccc(-c2noc(CCC(=O)N3CCN(c4ccc(C)cc4)CC3)n2)cc1
> 30 µM (inactive) |  | COc1ccc(-c2noc(CC(=O)N3CCN(c4cc(C)ccc4C)CC3)n2)cc1
> 30 µM (inactive) |  | COc1ccc(-c2noc(CCC(=O)N3CCN(c4cccc(C(F)(F)F)c4)CC3)n2)cc1
> 30 µM (inactive) |  | COc1ccccc1-c1noc(CCC(=O)N2CCN(c3cc(C)ccc3C)CC2)n1
> 30 µM (inactive) |  | COc1ccc(-c2noc(CCC(=O)N3CCN(c4cccc(F)c4)CC3)n2)cc1
> 30 µM (inactive) |  | COc1ccc(-c2cccc(CCC(=O)N3CCN(c4cc(C)ccc4C)CC3)c2)cc1
> 30 µM (inactive) |  | Cc1cccc(-c2noc(CCC(=O)N3CCN(c4cc(C)ccc4C)CC3)n2)c1
> 30 µM (inactive) |  | COc1ccc(-c2noc(CCC(=O)N3CCN(c4ccccc4C)CC3)n2)cc1
> 30 µM (inactive) |  | COc1ccc(-c2cc(CCC(=O)N3CCN(c4cc(C)ccc4C)CC3)[nH]n2)cc1
> 30 µM (inactive) |  | Cc1ccc(C)c(N2CCN(C(=O)CCc3nc(-c4ccc(C(F)(F)F)cc4)no3)CC2)c1
> 30 µM (inactive) |  | COc1ccc(-c2noc(CCC(=O)N3CCN(c4ccccc4C(F)(F)F)CC3)n2)cc1
> 30 µM (inactive) |  | COc1ccc(-c2noc(CCC(=O)N3CCN(c4ccc(F)cc4)CC3)n2)cc1
> 30 µM (inactive) |  | Cc1ccc(C)c(N2CCN(C(=O)CCc3nc(-c4ccccc4Br)no3)CC2)c1
> 30 µM (inactive) |  | COc1ccc(-c2noc(CCC(=O)N3CCN(c4ccc(Br)cc4)CC3)n2)cc1
> 30 µM (inactive) |  | COc1ccc(-c2coc(CCC(=O)N3CCN(c4cc(C)ccc4C)CC3)n2)cc1
> 30 µM (inactive) |  | COc1ccc(-c2noc(CCC(=O)N3CCN(c4ccccc4)CC3)n2)cc1
inactive | 0.12 µM | COc1ccc(-c2noc(CCC(=O)N3CCN(c4cc(C)ccc4C)CC3)n2)cc1
> 30 µM (inactive) |  | Cc1ccc(C)c(N2CCN(C(=O)CCc3nc(-c4ccccc4F)no3)CC2)c1
> 30 µM (inactive) |  | COc1ccc(-c2noc(CCC(=O)N3CCN(c4cccc(Br)c4)CC3)n2)cc1
> 30 µM (inactive) |  | Cc1ccc(C)c(N2CCN(C(=O)CCc3nc(-c4ccccc4C)no3)CC2)c1
> 30 µM (inactive) |  | Cc1ccc(C)c(N2CCN(C(=O)CCc3nc(-c4ccc(N(C)C)cc4)no3)CC2)c1
> 30 µM (inactive) |  | Cc1ccc(C)c(N2CCN(C(=O)CCc3nc(-c4ccccc4)no3)CC2)c1
inactive | 0.28 µM | COc1cccc(-c2noc(CCC(=O)N3CCN(c4cc(C)ccc4C)CC3)n2)c1
> 30 µM (inactive) |  | COc1ccc(-c2noc(CCC(=O)N3CCN(c4ccc(Cl)cc4)CC3)n2)cc1

EC50 | Ki | SMILES
> 30 µM (inactive) |  | Cc1ccc(-c2noc(CCC(=O)N3CCN(c4cc(C)ccc4C)CC3)n2)cc1
> 30 µM (inactive) |  | COc1ccc(-c2noc(CCC(=O)N3CCN(c4ccccc4Cl)CC3)n2)cc1
> 30 µM (inactive) |  | Cc1ccc(C)c(N2CCN(C(=O)CCc3nc(-c4ccc(Br)cc4)no3)CC2)c1
> 30 µM (inactive) |  | COc1ccc(-c2cc(CCC(=O)N3CCN(c4cc(C)ccc4C)CC3)on2)cc1
> 30 µM (inactive) |  | Cc1ccc(C)c(N2CCN(C(=O)CCc3nc(-c4ccccc4C(F)(F)F)no3)CC2)c1
inactive | 0.06 µM | COc1ccc(-c2noc(CCC(=O)N3CCN(c4ccccc4F)CC3)n2)cc1
> 30 µM (inactive) |  | COc1ccc(-c2ccc(CCC(=O)N3CCN(c4cc(C)ccc4C)CC3)s2)cc1
> 30 µM (inactive) |  | COc1ccc(-c2noc(CCC(=O)N3CCN(c4cccc(OC)c4)CC3)n2)cc1
> 30 µM (inactive) |  | Cc1ccc(C)c(N2CCN(C(=O)CCc3nc(-c4cccc(C(F)(F)F)c4)no3)CC2)c1
> 30 µM (inactive) |  | COc1ccc(-c2noc(CCC(=O)N3CCN(c4ccccc4OC)CC3)n2)cc1
> 30 µM (inactive) |  | COc1ccc(-c2ccc(CCC(=O)N3CCN(c4cc(C)ccc4C)CC3)[nH]2)cc1
> 30 µM (inactive) |  | COc1ccc(-c2noc(CCC(=O)N3CCN(c4ccccc4Br)CC3)n2)cc1
> 30 µM (inactive) |  | Cc1ccc(C)c(N2CCN(C(=O)CCc3nc(-c4cccc(F)c4)no3)CC2)c1
> 30 µM (inactive) |  | COc1ccc(-c2noc(CCCCC(=O)N3CCN(c4cc(C)ccc4C)CC3)n2)cc1
> 30 µM (inactive) |  | COc1ccc(-c2ccc(CCC(=O)N3CCN(c4cc(C)ccc4C)CC3)o2)cc1
> 30 µM (inactive) |  | COc1ccc(-c2noc(CCC(=O)N3CCN(c4ccc(C(F)(F)F)cc4)CC3)n2)cc1
> 30 µM (inactive) |  | COc1ccc(-c2noc(CCC(=O)N3CCN(c4ccc(OC)cc4)CC3)n2)cc1
> 30 µM (inactive) |  | Cc1ccc(C)c(N2CCN(C(=O)CCc3nc(-c4ccc(Cl)cc4)no3)CC2)c1
> 30 µM (inactive) |  | Cc1ccc(C)c(N2CCN(C(=O)CCc3nc(-c4ccccc4Cl)no3)CC2)c1
> 30 µM (inactive) |  | Cc1ccc(C)c(N2CCN(C(=O)CCc3nc(-c4cccc(Cl)c4)no3)CC2)c1
> 30 µM (inactive) |  | COc1ccc(-c2noc(CCC(=O)N3CCN(c4cccc(C)c4)CC3)n2)cc1
> 30 µM (inactive) |  | Cc1ccc(C)c(N2CCN(C(=O)CCc3nc(-c4cccc(Br)c4)no3)CC2)c1
> 30 µM (inactive) |  | COc1ccc(-c2noc(CCCC(=O)N3CCN(c4cc(C)ccc4C)CC3)n2)cc1
> 30 µM (inactive) |  | COc1ccc(-c2noc(CCC(=O)N3CCC(c4cc(C)ccc4C)CC3)n2)cc1
> 30 µM (inactive) |  | Cc1ccc(C)c(N2CCN(C(=O)CCc3nc(-c4ccc(F)cc4)no3)CC2)c1
